According to publication PMC1281266, “Impact of Polychlorinated Biphenyls Contamination on Estrogenic Activity in Human Male Serum” (Environmental Health Perspectives, 2005):
Entries after “also recorded” stand apart in the source; their conditions may differ.

Key:
[1] = tested on: T47D.Luc cells; assay: Neutral red uptake cytotoxicity assay, 24-hr exposure; assay type: cell-based, human; conditions: lowest concentration causing a significant decrease of cell viability; 24-hr exposure Neutral Red uptake
Protocol: (§1) We determined estrogenic activities of 17 prevalent PCB congeners using the ER-CALUX bioassay (BioDetection Systems) using the human breast carcinoma T47D.Luc cell line, stably transfected with pEREtataLuc construct ([Legler et al. 1999]; [Machala et al. 2004]). ER-mediated activity was also determined in the cells treated with either total serum hexane/diethyl ether extracts or with a fraction of POPs obtained by a consequent sulfuric acid/silica fractionation. […] We determined cytotoxicity of extracts or individual PCBs by a neutral red uptake assay after a 24-hr exposure.

[2] = molecular target: T1, estrogen receptor (ER) (Homo sapiens, UniProt P03372); assay: ER-CALUX bioassay, estrogenic (ER-mediated) activity: induction of luciferase in T47D.Luc cells; assay type: cell-based; conditions: for ER-mediated activity (induction of ER-dependent luciferase activity), in words: individual congeners, micromolar concentrations, Figure 2A; for ER-activated activity IEF (induction equivalency factor): ratio between EC50 of E2 and the PCB concentration inducing the same level of luciferase activity
T1 construct: using the human breast carcinoma T47D.Luc cell line, stably transfected with pEREtataLuc construct; host or cells: T47D.Luc (human breast carcinoma, stably transfected with the pEREtataLuc reporter)

[3] = molecular target: T1, estrogen receptor (ER); assay: ER-CALUX bioassay, antiestrogenicity: decrease in response to E2 in co-treated T47D.Luc cells; assay type: cell-based; conditions: for Effect on E2-induced luciferase activity (antiestrogenicity), in words: 3 pM E2, T47D.Luc cells, Figure 3; for Effect of co-treatment on ER activation by E2, in words: co-treatment with 3 pM E2, Figure 2B
Protocol: as §1

[4] = tested on: BG1LucE2 cells; parameters: method as in Rogers and Denison 2000; conditions: 10 μM concentrations; ref Rogers and Denison 2000; cited from earlier work
[5] = molecular target: T2, AhR (Rattus norvegicus, UniProt P41738); assay: DR-CALUX luciferase reporter gene assay, dioxin-like activity; assay type: cell-based; conditions: data not shown
T2 construct: a luciferase reporter gene assay (DR-CALUX; BioDetection Systems, Amsterdam, the Netherlands) as described previously; rat hepatoma H4IIE.Luc by own knowledge of the DR-CALUX assay
T2 sequence (P41738 10-853): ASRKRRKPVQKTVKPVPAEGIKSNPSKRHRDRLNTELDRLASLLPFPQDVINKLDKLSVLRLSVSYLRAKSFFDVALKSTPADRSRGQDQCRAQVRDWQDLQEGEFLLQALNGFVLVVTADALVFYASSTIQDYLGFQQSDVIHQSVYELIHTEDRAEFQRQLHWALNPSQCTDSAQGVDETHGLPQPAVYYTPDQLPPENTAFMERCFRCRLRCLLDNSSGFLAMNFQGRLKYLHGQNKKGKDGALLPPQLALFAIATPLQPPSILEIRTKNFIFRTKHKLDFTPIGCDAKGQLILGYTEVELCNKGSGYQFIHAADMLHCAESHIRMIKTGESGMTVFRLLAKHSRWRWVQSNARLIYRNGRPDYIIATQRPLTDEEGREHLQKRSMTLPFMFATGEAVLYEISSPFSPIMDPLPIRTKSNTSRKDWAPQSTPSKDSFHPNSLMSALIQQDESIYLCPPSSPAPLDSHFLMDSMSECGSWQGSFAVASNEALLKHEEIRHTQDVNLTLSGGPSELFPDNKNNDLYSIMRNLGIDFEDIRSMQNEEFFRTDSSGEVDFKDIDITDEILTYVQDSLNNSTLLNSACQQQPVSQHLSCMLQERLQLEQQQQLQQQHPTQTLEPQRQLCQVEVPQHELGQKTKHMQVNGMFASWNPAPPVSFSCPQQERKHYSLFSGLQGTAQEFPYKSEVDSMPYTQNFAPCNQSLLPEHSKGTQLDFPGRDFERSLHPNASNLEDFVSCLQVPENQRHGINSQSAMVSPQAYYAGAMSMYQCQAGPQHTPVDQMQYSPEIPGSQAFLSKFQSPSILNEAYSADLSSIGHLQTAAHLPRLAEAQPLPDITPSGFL
Protocol: We determined the levels of cytochrome P450 (CYP) 1A1 and CYP1B1 mRNA in human peripheral lymphocytes by RNA extraction and a quantitative reverse-transcriptase-polymerase chain reaction (RT-PCR) method using TaqMan technology ([Canton et al. 2003]; [van Duursen et al. 2005]). The in vitro potencies of POPs present in serum to activate AhR were measured in sulfuric acid/silica-treated extracts by a luciferase reporter gene assay (DR-CALUX; BioDetection Systems, Amsterdam, the Netherlands) as described previously ([Murk et al. 1996]).

[6] = tested on: MCF-7 cells; parameters: method as in Bonenfeld-Jorgensen et al. 2001; conditions: ref Bonenfeld-Jorgensen et al. 2001; cited from earlier work
[7] = tested on: rat uterus; parameters: method as in Li et al. 1994; conditions: at very high concentrations; ref Li et al. 1994; cited from earlier work
[8] = tested on: MCF-7 cells; parameters: method as in Arcaro et al. 1999; conditions: ref Arcaro et al. 1999; cited from earlier work
[9] = tested on: rat uterus; parameters: method as in Arcaro et al. 1999; conditions: ref Arcaro et al. 1999; cited from earlier work

Row | Structure (SMILES) | Cytotoxicity LOEC [1] [µM] | ER-mediated activity (induction of ER-dependent luciferase activity), in words [2] | Effect on E2-induced luciferase activity (antiestrogenicity), in words [3] | further results
1 | Clc1cc(Cl)c(-c2c(Cl)c(Cl)cc(Cl)c2Cl)cc1Cl [PCB 187, 2,2′,3,4′,5,5′,6-Heptachlorobiphenyl] | 20 |  |  | 
2 | Clc1cc(Cl)c(-c2c(Cl)c(Cl)cc(Cl)c2Cl)c(Cl)c1Cl [PCB 199, 2,2′,3,3′,4′,5,6,6′-Octachlorobiphenyl] | 20 | did not induce | significantly decreased | IC50 [3]: 2.85 µM
3 | Clc1ccc(-c2ccc(Cl)c(Cl)c2Cl)cc1Cl [PCB 105, 2,3,3′,4,4′-Pentachlorobiphenyl] | > 40 | only partial ER agonists; also recorded: induced the ER-mediated activity |  | ER-activated activity IEC (induction equivalency concentration) [2]: WI (key: NI: no significant induction/inhibition; WI: weak induction/inhibition (< 50% of estradiol maximum induction); ER-activated activity IEF (induction equivalency factor) [2]: WI (weak induction/inhibition (< 50% of estradiol maximum induction)
4 | Clc1ccc(-c2ccc(Cl)cc2Cl)cc1 [PCB 28, 2,4,4′-Trichlorobiphenyl] | > 20 | significant ER-mediated activity; also recorded: induced the ER-mediated activity |  | EC50 [2]: 8.23 µM; Effect of co-treatment on ER activation by E2, in words [3]: potentiated
5 | Clc1cc(Cl)c(-c2c(Cl)c(Cl)c(Cl)c(Cl)c2Cl)cc1Cl [PCB 203, 2,2′,3,4,4′,5,5′,6-Octachlorobiphenyl] | 20 | did not induce | significantly decreased | IC50 [3]: 3.2 µM
6 | Clc1ccc(-c2ccc(Cl)c(Cl)c2)cc1Cl [PCB 77, 3,3′,4,4′-tetrachlorobiphenyl] |  |  |  | ER-mediated (estrogenic) activity in BG1LucE2 cells [4]: no ER-mediated activity
7 | Clc1ccc(Cl)c(-c2cc(Cl)ccc2Cl)c1 [PCB 52, 2,2′,5,5′-Tetrachlorobiphenyl] | > 20 | significant ER-mediated activity; also recorded: induced the ER-mediated activity |  | EC50 [2]: 9.52 µM; Effect of co-treatment on ER activation by E2, in words [3]: potentiated
8 | ClC(Cl)=C(c1ccc(Cl)cc1)c1ccc(Cl)cc1 [p,p′-DDE] |  |  |  | Estrogenic activity, in words ([2]; data not shown): weak estrogenic; Dioxin-like activity, in words [5]: no dioxin-like activity
9 | Clc1ccc(-c2cc(Cl)c(Cl)cc2Cl)cc1Cl [PCB 118, 2,3′,4,4′,5-Pentachlorobiphenyl] | > 20 |  |  | 
10 | Clc1ccc(-c2cc(Cl)c(Cl)cc2Cl)cc1 [PCB 74, 2,4,4′,5-Tetrachlorobiphenyl] | > 40 | significant ER-mediated activity; also recorded: induced the ER-mediated activity |  | EC50 [2]: 17 µM
11 | Clc1cc(Cl)c(-c2cc(Cl)c(Cl)c(Cl)c2Cl)cc1Cl [PCB 180, 2,2′,3,4,4′,5,5′-Heptachlorobiphenyl] | 20 | did not induce | significantly decreased | IC50 [3]: 9.32 µM; Antiestrogenic effects in reporter gene and cell proliferation MCF-7 assays [6]: Antiestrogenic effects
12 | Clc1cc(Cl)c(-c2cc(Cl)c(Cl)cc2Cl)cc1Cl [PCB 153, 2,2′,4,4′,5,5′-Hexachlorobiphenyl] | 20 |  |  | Estrogenicity in the acute 2-day immature rat uterine weight assay [7]: estrogenic; Antiestrogenic effects in reporter gene and cell proliferation MCF-7 assays [6]: Antiestrogenic effects
13 | Clc1ccc(-c2cc(Cl)c(Cl)c(Cl)c2)cc1Cl [PCB 126, 3,3′,4,4′,5-Pentachlorobiphenyl] | > 40 |  | not elicited | 
14 | Clc1ccc(-c2cc(Cl)c(Cl)c(Cl)c2Cl)c(Cl)c1Cl [PCB 170, 2,2′,3,3′,4,4′,5-Heptachlorobiphenyl] | 25 | did not induce | significantly decreased | IC50 [3]: 16 µM
15 | Clc1ccc(-c2cc(Cl)c(Cl)cc2Cl)c(Cl)c1 [PCB 99, 2,2′,4,4′,5-Pentachlorobiphenyl] | > 40 | only partial ER agonists; also recorded: induced the ER-mediated activity |  | ER-activated activity IEC (induction equivalency concentration) [2]: WI (key: NI: no significant induction/inhibition; WI: weak induction/inhibition (< 50% of estradiol maximum induction); ER-activated activity IEF (induction equivalency factor) [2]: WI (weak induction/inhibition (< 50% of estradiol maximum induction)
16 | Clc1ccc(-c2cc(Cl)c(Cl)c(Cl)c2Cl)cc1Cl [PCB 156, 2,3,3′,4,4′,5-Hexachlorobiphenyl] | 40 |  |  | Antiestrogenicity IhEF (inhibitory equivalency factor) [3]: WI (key: NI: no significant induction/inhibition; WI: weak induction/inhibition (< 50% of estradiol maximum induction; < 50% decrease in induction of 3 pM E2)); Antiestrogenicity IC50 ([3]; 50% decrease in luciferase activity induced by 3 pM E2, T47D.Luc cells): WI (weak induction/inhibition (< 50% of estradiol maximum induction; < 50% decrease in induction of 3 pM E2))
17 | Clc1cccc(Cl)c1-c1c(Cl)cccc1Cl [PCB 54, 2,2′,6,6′-Tetrachlorobiphenyl] |  |  |  | Estrogenicity in the MCF-7 cell focus assay [8]: estrogenic; Estrogenicity in the rat uterotrophic assay [9]: estrogenic
18 | Clc1cc(-c2cc(Cl)c(Cl)c(Cl)c2Cl)c(Cl)c(Cl)c1Cl [PCB 194, 2,2′,3,3′,4,4′,5,5′-Octachlorobiphenyl] | 25 | did not induce | significantly decreased | IC50 [3]: 14.1 µM
19 | Clc1cc(Cl)c(-c2ccc(Cl)c(Cl)c2Cl)cc1Cl [PCB 138, 2,2′,3,4,4′,5′-Hexachlorobiphenyl] | 20 | did not induce | significantly decreased | IC50 [3]: 10.1 µM; Antiestrogenic effects in reporter gene and cell proliferation MCF-7 assays [6]: Antiestrogenic effects
20 | Clc1ccc(-c2ccc(Cl)c(Cl)c2)c(Cl)c1 [PCB 66, 2,3′,4,4′-Tetrachlorobiphenyl] | > 40 | significant ER-mediated activity; also recorded: induced the ER-mediated activity |  | EC50 [2]: 24.3 µM; ER-mediated (estrogenic) activity in BG1LucE2 cells [4]: estrogenic
21 | Clc1ccc(Cl)c(-c2c(Cl)ccc(Cl)c2Cl)c1 [PCB 95, 2,2′,3,5′,6-pentachlorobiphenyl] |  |  |  | ER-mediated (estrogenic) activity in BG1LucE2 cells [4]: estrogenic
